One data set has as its target T1, caspase-3 (Homo sapiens, UniProt P42574).
T1 sequence (P42574 29-175 limits assumed): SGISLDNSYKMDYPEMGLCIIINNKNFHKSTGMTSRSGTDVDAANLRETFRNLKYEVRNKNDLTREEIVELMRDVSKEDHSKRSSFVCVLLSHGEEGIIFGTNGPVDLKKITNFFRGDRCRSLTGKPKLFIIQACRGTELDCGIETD
T1 sequence (P42574 176-277 limits assumed): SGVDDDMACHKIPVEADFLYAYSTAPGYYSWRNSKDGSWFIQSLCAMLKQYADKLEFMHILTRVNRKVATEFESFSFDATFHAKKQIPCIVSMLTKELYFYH
To be noted: cited from earlier work.

The next data set deals with T2, caspase-7 (Homo sapiens, UniProt P55210).
T2 sequence (P55210 24-198 limits assumed): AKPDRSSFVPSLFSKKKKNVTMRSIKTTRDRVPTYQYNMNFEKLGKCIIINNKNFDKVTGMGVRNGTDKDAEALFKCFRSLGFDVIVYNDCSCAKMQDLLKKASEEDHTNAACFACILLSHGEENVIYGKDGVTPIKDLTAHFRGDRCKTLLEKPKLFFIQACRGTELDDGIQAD
T2 sequence (P55210 207-303 limits assumed): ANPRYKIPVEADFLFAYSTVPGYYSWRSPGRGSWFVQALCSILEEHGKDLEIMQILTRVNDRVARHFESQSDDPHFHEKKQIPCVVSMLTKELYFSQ
The settings on record: cited from earlier work.

The test system of data set [1] is transcripts of FOS, IL1B, IL8 and TP53. Briefly: Transcript level stabilisation in blood samples, real time RT-PCR monoplex assays. The format is cell-based. The settings on record: EDTA blood, 2% (w/v) N-methylacetamide, one and three days at RT. (Quantitative PCR measures a nucleic acid by following its amplification.)
The next data set deals with 18S ribosomal DNA. As to the kind of experiment: Stabilization of extracellular nucleic acid population in whole blood, 18S rDNA qPCR (66 bp and 500 bp amplicon). Format: cell-based, human. To be noted: 7.2 mg/ml K2 EDTA, 3 and 6 days RT.
The conditions of data set [2]: buffer; cited from earlier work.
A further data set relates to red blood cells. As to the kind of experiment: Hemolysis in stabilized blood samples. Format: cell-based. To be noted: butanamide 0.5% (w/v) to 3.5% (w/v) in blood mixture.
For data set [3], the system named is white blood cells. Briefly: Microscopic evaluation of blood smears (cell morphology/integrity). The settings on record: EDTA blood, final 5% v/v formamide, 0.5× MOPS pH5.5, RT up to three days. Format: cell-based.
Data set [4] concerns white blood cells. Briefly: Flow cytometry analysis of cell integrity. Format: cell-based. The settings on record: EDTA blood mixed with test solution (5% v/v formamide). As for the experimental part:
FIG. 6: Flow cytometry (FC) analysis of peripheral blood samples of one donor of example 1. Blood was directly drawn into BD EDTA tubes and PreAnalytiX PAXgene Blood RNA Tubes (PAXgene). […] Immediately after collection and treatment of samples, blood aliquots were analysed without incubation (0 h samples), while remaining samples were incubated at RT for one and three days (24 h and 72 h samples) prior to FC analysis. Shown per picture are the size (x-axis=forward scatter) and granularity (y-axis=sideward scatter) of 10,000 events per sample aliquot tested that contain signals of cells, cell debris and particles. The different populations of white blood cells that are distinguishable from each other in FC analysis (L, M, NG) and the cell-free fraction (D) are indicated by circles for the (+) control (EDTA) sample. They are as follows:
Where indicated, cell morphology was investigated by microscopic evaluation of blood smears and cell integrity by flow cytometry (FC).
The results obtained by microscopic analysis were verified by the analysis of cell integrity with flow cytometry. […] However, not all white blood cells may be equally well stabilized during longer stabilization periods. However, intact cells were detected and the detected cell populations are important for certain diagnostic applications which aim e.g. at the analysis of lymphocytes.
(A flow cytometer gives signals particle by particle.)

Another data set concerns the target T3, calpain I (Homo sapiens, UniProt P07384).
T3 sequence (P07384 1-714): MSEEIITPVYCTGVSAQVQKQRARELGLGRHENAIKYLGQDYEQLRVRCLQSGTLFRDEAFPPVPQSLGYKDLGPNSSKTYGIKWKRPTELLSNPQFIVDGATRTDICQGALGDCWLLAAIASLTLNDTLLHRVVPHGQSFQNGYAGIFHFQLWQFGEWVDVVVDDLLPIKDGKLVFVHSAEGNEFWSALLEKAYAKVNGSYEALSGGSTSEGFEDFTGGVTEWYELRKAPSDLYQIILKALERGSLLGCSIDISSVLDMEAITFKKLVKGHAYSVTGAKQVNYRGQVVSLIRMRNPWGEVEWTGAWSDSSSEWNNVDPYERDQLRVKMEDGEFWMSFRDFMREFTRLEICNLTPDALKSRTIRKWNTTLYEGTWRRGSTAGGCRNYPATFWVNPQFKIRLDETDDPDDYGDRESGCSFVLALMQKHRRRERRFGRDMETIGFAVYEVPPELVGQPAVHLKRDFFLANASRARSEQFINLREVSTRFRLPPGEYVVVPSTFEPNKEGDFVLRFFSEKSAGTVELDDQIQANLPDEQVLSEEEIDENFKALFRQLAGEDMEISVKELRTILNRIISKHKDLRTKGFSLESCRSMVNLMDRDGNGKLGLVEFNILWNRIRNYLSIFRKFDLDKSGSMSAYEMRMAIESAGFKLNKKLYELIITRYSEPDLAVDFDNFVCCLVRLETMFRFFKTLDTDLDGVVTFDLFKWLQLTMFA
T3 sequence (P04632 1-268 partner): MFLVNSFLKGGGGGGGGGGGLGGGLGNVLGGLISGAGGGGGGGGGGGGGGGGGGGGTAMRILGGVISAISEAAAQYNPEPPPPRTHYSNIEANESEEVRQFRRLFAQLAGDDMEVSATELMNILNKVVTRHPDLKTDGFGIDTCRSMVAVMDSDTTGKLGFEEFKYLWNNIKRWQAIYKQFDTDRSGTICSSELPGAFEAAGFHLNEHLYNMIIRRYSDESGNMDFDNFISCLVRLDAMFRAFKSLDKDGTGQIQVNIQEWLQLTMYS
To be noted: cited from earlier work.

The next data set deals with T4, calpain II (Homo sapiens, UniProt P17655).
T4 sequence (P17655 1-700): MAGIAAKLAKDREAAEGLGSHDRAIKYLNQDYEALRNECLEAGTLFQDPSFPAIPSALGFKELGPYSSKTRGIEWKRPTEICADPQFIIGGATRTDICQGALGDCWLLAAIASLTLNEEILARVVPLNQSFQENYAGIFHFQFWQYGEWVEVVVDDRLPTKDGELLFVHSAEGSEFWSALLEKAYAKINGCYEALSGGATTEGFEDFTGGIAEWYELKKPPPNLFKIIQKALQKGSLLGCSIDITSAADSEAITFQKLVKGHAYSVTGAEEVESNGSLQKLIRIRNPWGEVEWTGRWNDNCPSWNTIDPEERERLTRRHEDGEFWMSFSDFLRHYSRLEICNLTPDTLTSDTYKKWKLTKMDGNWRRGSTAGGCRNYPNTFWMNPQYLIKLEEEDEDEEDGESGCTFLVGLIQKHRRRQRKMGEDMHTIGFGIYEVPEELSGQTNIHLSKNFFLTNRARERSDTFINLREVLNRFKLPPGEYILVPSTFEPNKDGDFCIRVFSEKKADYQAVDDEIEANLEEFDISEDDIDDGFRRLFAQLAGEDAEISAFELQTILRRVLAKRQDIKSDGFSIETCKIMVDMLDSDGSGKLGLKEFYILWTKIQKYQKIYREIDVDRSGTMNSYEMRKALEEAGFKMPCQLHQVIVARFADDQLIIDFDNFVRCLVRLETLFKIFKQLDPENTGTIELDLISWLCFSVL
T4 sequence (P04632 1-268 partner): T3 sequence (P04632 1-268 partner)
To be noted: cited from earlier work.

Another data set addresses cathepsin L (Homo sapiens, UniProt P07711). The settings on record: cited from earlier work.
The next data set relates to apoptosis. To be noted: cited from earlier work.
The mark [5] stands for this setting: amide in different concentrations with 1 μM Quinoline-Val-Asp-CH2-OPH (caspase inhibitor).
Setting [6] is: amide alone in different concentrations, without caspase inhibitor.

Non-standard residues stand in square brackets, D forms with d. *: point of attachment. Nle = CCCC[C@H](N)C(=O)O; Cbz = O=C(OCc1ccccc1)*; CH2F = FC*

Chain of cathepsin L (P07711 114-333, species assumed): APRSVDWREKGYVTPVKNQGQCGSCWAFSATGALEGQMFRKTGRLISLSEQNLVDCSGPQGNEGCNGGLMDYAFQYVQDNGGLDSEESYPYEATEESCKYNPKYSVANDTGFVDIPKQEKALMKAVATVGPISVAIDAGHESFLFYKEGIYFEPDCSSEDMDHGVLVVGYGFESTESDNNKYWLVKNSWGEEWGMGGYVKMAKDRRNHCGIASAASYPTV
Description for 18S ribosomal DNA: Blood obtained from donors was collected into 10 ml K2 EDTA tubes (BD). 4.5 ml of the respectively collected blood was mixed with 0.9 ml of different stabilization solutions (see below examples on the details of the tested stabilization solutions).
All stabilized blood samples were set up in triplicates per condition and test time point. At time point 0 (reference), immediately after mixing the stabilization solution and blood, plasma was generated and the circulating extracellular DNA was extracted. The residual stabilized blood sample was stored for three days and six days at room temperature.
As a reference control, the EDTA stabilized blood sample (collected in K2 EDTA tubes without further additives) was also stored for 3 and 6 days. […] DMAA stabilized samples as tested herein always included additionally a caspase inhibitor. No DMAA containing stabilizing solutions without caspase inhibitor were tested in the subsequent examples.
Plasma was generated from the stabilized and unstabilized (EDTA) blood samples by inverting the blood containing tubes for four times. Then, the tubes were centrifuged for 10 minutes at 1900×g at 4° C. 2.5 ml of the plasma fraction was transferred into a fresh 15 ml falcon tube and centrifuged for 10 minutes at 16.000×g at 4° C. 2 ml of the respectively cleared plasma was used for extracellular nucleic acid isolation using the QIAamp circulating nucleic acid kit (QIAGEN) according to the manufacturer's instructions.
The isolated extracellular DNA was analyzed using two different qPCR assays, targeting different fragment lengths of the 18S ribosomal DNA:
Cycle threshholds of the individual samples were translated into amount of gDNA in the eluate, according to a gDNA standard curve. The gDNA amount of the storage time points was compared to the time zero gDNA level from the same donor and is shown as fold increase in the figures. Especially the increase of the 500 bp fragment in the plasma fraction of the blood sample after storage is an indication for a lysis/destruction of white blood cells. Thus, the lower the amount of released 500 bp DNA, the better the performance of the stabilization method.
The figures corresponding to the subsequently described examples show the increase of DNA relative to time point 0 with the different stabilization solutions (fold change) using different amplicon lengths of 18S rRNA gene. Bars indicate the mean of the triplicate samples per condition and test time point.

In the case of `COC[C@@H]1CCCN1S(=O)(=O)c1ccc2c(c1)C(=O)C(=O)N2` [Caspase-3/7 Inhibitor I], the Ki (as a rule, the dissociation constant of the complex between target and ligand, obtained from inhibition or displacement) is 60 nM at caspase-3 and 170 nM on caspase-7.
Turning to `CNC(C)=O` [N-methylacetamide], the “stabilization of transcript levels of FOS, IL1B, IL8, TP53” value in data set [1] is “effective in stabilizing transcript levels for up to three days”. For the same compound, in the data set with 18S ribosomal DNA (setting [5]), the “increase in 18S rDNA in plasma (stabilization of extracellular nucleic acid population)” value (shortened to “increase in 18S rDNA in plasma”) was “significantly reduced increase in 18S rDNA”.
In the case of `CNC=O` [N-methylformamide], the “increase in 18S rDNA in plasma” value in the data set with 18S ribosomal DNA (setting [5]) is reported as “significantly reduced increase in 18S rDNA”.
Take `N=c1sc2c(n1CC(=O)c1ccc([N+](=O)[O-])cc1)CCCC2` [Pifithrin-α, p-Nitro]: in [2], the t1/2 result was “biological systems (t1/2 = 8h in neuron culture medium at 37° C)”.
`CC(N)=O` [acetamide]: the “increase in 18S rDNA in plasma” value in the data set with 18S ribosomal DNA (setting [5]) is given as “significantly reduced increase in 18S rDNA”.
For `CCCC(N)=O` [butanamide], the “increase in 18S rDNA in plasma” value in the data set with 18S ribosomal DNA (setting [6]) is on record as “significantly reduced increase in 18S rDNA”; in the data set on 18S ribosomal DNA (setting [5]), “uniform stabilization results were obtained”. In addition, the “hemolysis of the red blood cells contained in the blood sample” value with red blood cells is “prevents the hemolysis”.
Turning to `NC=O` [formamide], the “white blood cell integrity, microscopy of blood smears” value in the data set with white blood cells [3] is reported as “did not act lytic on WBC”. The “lysis of lymphocytes and monocytes, flow cytometry” value in the data set with white blood cells [4] (RT up to three days) is “not affected by lysis”. Besides, the “lysis of neutrophilic granulocytes, flow cytometry” value in the data set on white blood cells [4] (longer storage at RT) is on record as “Some lysis appeared to have occurred”. In addition, the “increase in 18S rDNA in plasma” value with 18S ribosomal DNA (setting [6]) is listed as “significantly reduced increase in 18S rDNA”; in the data set with 18S ribosomal DNA (setting [5]), “uniform stabilization results were obtained”.
As to `CCC(N)=O` [propanamide], in the data set with 18S ribosomal DNA (setting [5]), the “increase in 18S rDNA in plasma” value is given as “significantly reduced increase in 18S rDNA”.
In the case of Ac-Leu-Leu-[Nle]-aldehyde, the inhibitory constant (Ki) at calpain I was 190 nM; on calpain II, 150 nM; at cathepsin L, 0.5 nM.
With “Cbz-Leu-Leu-Tyr-CH2F [Calpain Inhibitor IV]”, the “k2 calpain II” value on calpain II (irreversible inhibitor) is recorded as 28,900 M-1s-1). Also acts as an inhibitor of cathepsin L (k2 =. Also, the “k2 cathepsin L” value at cathepsin L is listed as 680,000 M-1s-1).
For Quinoline-Val-Asp-CH2-OPH [Q-VD-OPh], in the data set with apoptosis, the “effectiveness in preventing apoptosis compared with Z-VAD-FMK” value is reported as “even more effective”.

Source of the values: patent publication US11525155B2, “Stabilisation of biological samples” (QIAGEN GmbH, priority 2013, dated 2022).
